# Measured values as given in paper PMC6856039 (Investigational New Drugs, 2019).
# Test system: Japanese patients with advanced EGFR mutation-positive NSCLC
# Test: Phase I study: dose-limiting toxicities, adverse drug reactions, tolerability
# Assay type: in vivo, human
# Method: This was an open-label, non-randomized, dose escalation phase I study conducted between December 14, 2015 and July 7, 2016 at 12 centers in Japan. The study was conducted in three phases (dose escalation phase, expansion phase, and extension phase), and the design is shown in Supplementary Fig. 1 (Online Resource 1). […] In patients who received the BID regimen, the administration interval was ≥10 h.
# The first phase was the dose escalation phase conducted according to a 3 + 3 design, with a minimum of three patients treated at each dose level. […] The dosing rationale was derived from a 4-weeks repeated oral-dose toxicology study in monkeys. […] If none of the initial three patients treated within a dose level experienced a dose-limiting toxicity (DLT) during Cycle 1, the dose was escalated to the next level. […] If none of the three additional patients experienced DLTs after all of them completed Cycle 1, the dose was escalated to the next level. If at least one of the additional three patients developed a DLT, then the dose escalation was stopped and at least six evaluable patients were enrolled at the previous dose level to establish the maximum tolerated dose (MTD). The maximum dose level was defined as Dose Level 9 (150 mg/day). Based on safety and PK results, the dosing schedule could be changed to a BID regimen.
# AEs were evaluated and graded according to the National Cancer Institute Common Terminology Criteria for Adverse Events Version 4.03. DLTs were also evaluated and defined as hematologic toxicity (Grade 4 neutropenia lasting >7 days, Grade 4 thrombocytopenia or Grade 3 thrombocytopenia associated with bleeding and requiring blood transfusion, or febrile neutropenia) or non-hematologic toxicity (Grade ≥3 nausea/vomiting uncontrolled by aggressive antiemetic treatment, Grade ≥3 diarrhea lasting >48 h and unresponsive to treatment, Grade ≥3 aspartate aminotransferase/alanine aminotransferase lasting >7 days, corneal disorder worsening by ≥1 grade, or Grade ≥3 other non-hematological toxicity).
smiles,measurement,setting,value
C=CC(=O)N[C@H]1CCc2c(-c3cnc4ccccc4c3)c3c(N)ncnc3n2C1 [TAS-121],"ALT increased, ≥G3","4 mg/day QD, N = 29",0 n
same,"AST increased, ≥G3","4 mg/day QD, N = 29",0 n
same,"Decreased appetite, any grade","4 mg/day QD, N = 29",0 n
same,"Decreased appetite, ≥G3","4 mg/day QD, N = 29",0 n
same,"Diarrhea, any grade","4 mg/day QD, N = 29",6 n
same,"Diarrhea, ≥G3","4 mg/day QD, N = 29",0 n
same,"Dry skin, ≥G3","4 mg/day QD, N = 29",0 n
same,"Hemoglobin decreased, ≥G3","4 mg/day QD, N = 29",0 n
same,"Hypoalbuminemia, ≥G3","4 mg/day QD, N = 29",0 n
same,"Malaise, ≥G3","4 mg/day QD, N = 29",0 n
same,"Nausea, ≥G3","4 mg/day QD, N = 29",0 n
same,"Pruritus, ≥G3","4 mg/day QD, N = 29",0 n
same,"Pyrexia, ≥G3","4 mg/day QD, N = 29",0 n
same,"Rash, ≥G3","4 mg/day QD, N = 29",0 n
same,"Stomatitis, ≥G3","4 mg/day QD, N = 29",0 n
same,"Urticaria, ≥G3","4 mg/day QD, N = 29",0 n
same,"Vomiting, ≥G3","4 mg/day QD, N = 29",0 n
same,"WBC decreased, ≥G3","4 mg/day QD, N = 29",0 n
same,proportion of patients whose dose was decreased,"8 mg/day BID (MTD) group, 7/38",18.4%
same,proportion of patients whose treatment was interrupted,"8 mg/day BID (MTD) group, 17/38",44.7%
same,incidence of discontinuation due to ADRs,"8 mg/day BID (MTD), 3/38",7.9%
same,"AST increased, ≥G3","8 mg/day BID, N = 38",0 n
same,"Decreased appetite, ≥G3","8 mg/day BID, N = 38",0 n
same,"Dry skin, ≥G3","8 mg/day BID, N = 38",0 n
same,"Hypoalbuminemia, ≥G3","8 mg/day BID, N = 38",0 n
same,"Malaise, ≥G3","8 mg/day BID, N = 38",0 n
same,"Nausea, ≥G3","8 mg/day BID, N = 38",0 n
same,"Other embolic and thrombotic events, ≥G3","8 mg/day BID, N = 38",0 n
same,"Pruritus, ≥G3","8 mg/day BID, N = 38",0 n
same,"Pyrexia, ≥G3","8 mg/day BID, N = 38",0 n
same,"Stomatitis, ≥G3","8 mg/day BID, N = 38",0 n
same,"WBC decreased, ≥G3","8 mg/day BID, N = 38",0 n
same,"ALT increased, ≥G3","8 mg/day QD, N = 38",0 n
same,"AST increased, ≥G3","8 mg/day QD, N = 38",0 n
same,"Decreased appetite, ≥G3","8 mg/day QD, N = 38",0 n
same,"Dry skin, ≥G3","8 mg/day QD, N = 38",0 n
same,"Embolic and thrombotic events, any grade","8 mg/day QD, N = 38",6 n
same,"Hypoalbuminemia, ≥G3","8 mg/day QD, N = 38",0 n
same,"Interstitial lung disease, ≥G3","8 mg/day QD, N = 38",0 n
same,"Malaise, ≥G3","8 mg/day QD, N = 38",0 n
same,"Nausea, any grade","8 mg/day QD, N = 38",5 n
same,"Nausea, ≥G3","8 mg/day QD, N = 38",0 n
same,"Other embolic and thrombotic events, ≥G3","8 mg/day QD, N = 38",0 n
same,"Pruritus, ≥G3","8 mg/day QD, N = 38",0 n
same,"Rash maculo-papular, any grade","8 mg/day QD, N = 38",11 n
same,"Stomatitis, ≥G3","8 mg/day QD, N = 38",0 n
same,"Urticaria, any grade","8 mg/day QD, N = 38",5 n
same,"Urticaria, ≥G3","8 mg/day QD, N = 38",0 n
same,"Vomiting, ≥G3","8 mg/day QD, N = 38",0 n
same,"WBC decreased, any grade","8 mg/day QD, N = 38",5 n
same,"WBC decreased, ≥G3","8 mg/day QD, N = 38",0 n
same,proportion of patients whose dose was decreased,"10 mg/day QD (MTD) group, 7/18",38.9%
same,proportion of patients whose treatment was interrupted,"10 mg/day QD (MTD) group, 12/18",66.7%
same,incidence of discontinuation due to ADRs,"10 mg/day QD (MTD), 2/18",11.1%
same,"AST increased, ≥G3","10 mg/day QD, N = 18",0 n
same,"Decreased appetite, ≥G3","10 mg/day QD, N = 18",0 n
same,"Diarrhea, ≥G3","10 mg/day QD, N = 18",0 n
same,"Dry skin, ≥G3","10 mg/day QD, N = 18",0 n
same,"Embolic and thrombotic events, any grade","10 mg/day QD, N = 18",5 n
same,"Hypoalbuminemia, ≥G3","10 mg/day QD, N = 18",0 n
same,"Interstitial lung disease, any grade","10 mg/day QD, N = 18",0 n
same,"Interstitial lung disease, ≥G3","10 mg/day QD, N = 18",0 n
same,"Malaise, ≥G3","10 mg/day QD, N = 18",0 n
same,"Nausea, ≥G3","10 mg/day QD, N = 18",0 n
same,"Platelet count decreased, any grade","10 mg/day QD, N = 18",12 n
same,"Pruritus, ≥G3","10 mg/day QD, N = 18",0 n
same,"Pyrexia, ≥G3","10 mg/day QD, N = 18",0 n
same,"Rash maculo-papular, any grade","10 mg/day QD, N = 18",0 n
same,"Rash maculo-papular, ≥G3","10 mg/day QD, N = 18",0 n
same,"Stomatitis, ≥G3","10 mg/day QD, N = 18",0 n
same,"Urticaria, any grade","10 mg/day QD, N = 18",6 n
same,"WBC decreased, any grade","10 mg/day QD, N = 18",0 n
same,"WBC decreased, ≥G3","10 mg/day QD, N = 18",0 n
same,"ALT increased, any grade","12 mg/day BID, N = 5",0 n
same,"ALT increased, ≥G3","12 mg/day BID, N = 5",0 n
same,"AST increased, any grade","12 mg/day BID, N = 5",0 n
same,"AST increased, ≥G3","12 mg/day BID, N = 5",0 n
same,"Decreased appetite, ≥G3","12 mg/day BID, N = 5",0 n
same,"Dermatological toxicity, ≥G3","12 mg/day BID, N = 5",0 n
same,"Dry skin, any grade","12 mg/day BID, N = 5",0 n
same,"Dry skin, ≥G3","12 mg/day BID, N = 5",0 n
same,"Embolic and thrombotic events, any grade","12 mg/day BID, N = 5",0 n
same,"Embolic and thrombotic events, ≥G3","12 mg/day BID, N = 5",0 n
same,"Hypoalbuminemia, ≥G3","12 mg/day BID, N = 5",0 n
same,"Malaise, ≥G3","12 mg/day BID, N = 5",0 n
same,"Nausea, ≥G3","12 mg/day BID, N = 5",0 n
same,"Other embolic and thrombotic events, any grade","12 mg/day BID, N = 5",0 n
same,"Other embolic and thrombotic events, ≥G3","12 mg/day BID, N = 5",0 n
same,"Pruritus, any grade","12 mg/day BID, N = 5",0 n
same,"Pruritus, ≥G3","12 mg/day BID, N = 5",0 n
same,"Pulmonary embolism, any grade","12 mg/day BID, N = 5",0 n
same,"Pulmonary embolism, ≥G3","12 mg/day BID, N = 5",0 n
same,"Pyrexia, ≥G3","12 mg/day BID, N = 5",0 n
same,"Rash maculo-papular, ≥G3","12 mg/day BID, N = 5",0 n
same,"Rash, ≥G3","12 mg/day BID, N = 5",0 n
same,"Stomatitis, ≥G3","12 mg/day BID, N = 5",0 n
